In data set [1] the test system is HEK293T cells. Nature of the data set: Selective induction of autophagy in damaged mitochondria, Keima HEK293 cell model. The conditions noted are these: 0 μM, 2.5 μM, 5 μM, 10 μM; mitochondria damaged with CCCP; FIG. 42; P=0.0425. Format: cell-based. The protocol: In HEK293T cells in vitro, fusing Keima fluorescent protein derived from the coral and the mitochondrial localization sequence of cytochrome C oxidase subunit IV asmtKeima protein, staining the nuclei with Hoechst33342 nuclear dye, and using the ThermoCellInsight™ CX7 LZR High Content Screening (HCS) platform at EX/EM=594 nm/620 nm conditions to assess mitophagy levels. The autophagy level of damaged mitochondria is tested by disrupting the mitochondrial membrane potential using […] Carbonyl cyanide 3-chlorophenylhydrazone (CCCP), causing mitochondrial damage.

Data set [2] concerns renal ischemia-reperfusion (I/R) model of SD rats. Nature of the data set: Acute kidney injury model caused by unilateral renal ischemia and reperfusion in rats. The format is in vivo. The protocol:
The pharmacodynamic effects of the D crystal form of TJ01-013 are studied in a renal ischemia-reperfusion (I/R) model of SD rats. Each group has twelve male rats of 280-300 g. They are administered by gavage once a day for 3 consecutive days. Three dose groups are divided into 3 mg/kg, 10 mg/kg and 30 mg/kg. The sham group and model control group were administered by equal volumes of 0.5% CMC-Na, and left renal artery ligation is performed 1 h after administration on the fourth day, and right nephrectomy is performed after 45 min of ischemia and before reperfusion, and then administered every day until 3 d after administration. The endpoint of the experiment is 3 d after administration.

Data set [3] concerns SD rat puromycin aminonucleoside (PAN) model. Nature of the data set: PAN-induced renal injury model in rats. The format is in vivo, SD rats. The protocol:
The effect of D crystal form of TJ01-013 on renal function is studied in the SD rat puromycin aminonucleoside (PAN) model. Each group has twelve male rats of 160-180 g. On the first day of the experiment, except for the normal control group, rats in the other groups are given a single intraperitoneal injection of 100 mg/kg PAN (aminonucleoside puromycin) to induce the production of proteinuria. After modeling, the rats are randomly divided into the model control group, the three dose groups of 3 mg/kg, 10 mg/kg, and 30 mg/kg of the D crystal form of TJ01-013, and the normal control group. At the same time as intraperitoneal injection of PAN for modeling, the drug is administered by gavage once a day, with a volume of 10 mL/kg, for four consecutive weeks.

Where [4] appears, read: 3 mg/kg, 10 mg/kg, and 30 mg/kg, P<0.05-0.001.
Where [5] appears, read: 10 mg/kg and 30 mg/kg, versus model control, P<0.001.
The mark [6] stands for this setting: 3, 10, and 30 mg/kg gavage, 7 and 12 d after administration, versus model control.

Each structure is given as a SMILES string.

For the compound `O=C(O)C[S+]([O-])c1cc(NS(=O)(=O)c2ccc(Br)cc2)c2ccccc2c1O` (stereo not shown) [Embodiment 4], the “Induction of autophagy in damaged mitochondria (mitophagy level, mtKeima)” value in data set [1] is reported as “selectively induce autophagy in the damaged mitochondria”. For the same compound, the Creatinine clearance rate result in data set [2] (3 mg/kg, 10 mg/kg and 30 mg/kg, versus model control) is reported as “different degrees of improvement”; in data set [2] (10 mg/kg, versus model control, P<0.05) it was “statistically significant”. Also, the “Expression level of inflammatory factor IL-1p in renal tissues” value in data set [2] (setting [4]) is on record as “significantly decreased”. The “Expression level of inflammatory factor IL-6 in renal tissues” value in data set [2] (setting [4]) is “significantly decreased”. In data set [2] (10 mg/kg and 30 mg/kg, 72 h after ischemia-reperfusion), the Urea nitrogen level entry is reported as “significant trend of decrease”. Also, in data set [2] (setting [5]), the “Apoptotic cell rate in renal tissue” value was “significantly decreased”. For the same compound, in data set [2] (setting [5]), the “Expression level of apoptotic factor caspase 9 in renal tissues” value is listed as “significantly decreased”. The Creatinine values entry in data set [2] (10 mg/kg, 24 h, 48 h and 72 h after ischemia-reperfusion, versus model control, P<0.05-0.01) was “significantly decreased”; in data set [2] (30 mg/kg, 24 h and 72 h after reperfusion, P<0.05) it was “significantly decreased”. For the same compound, the “Degree of renal lesions (tubular dilatation, necrosis, glomerular atrophy, inflammatory cell infiltration etc.)” value is on record as “significantly reduced” in data set [2] (10 mg/kg, versus model control) and “tendency to reduce the above lesions” in data set [2] (30 mg/kg, versus model control). Also, in data set [2] (3, 10, and 30 mg/kg gavage, 72 h after reperfusion, versus model control), the “Effect on body weight” value is on record as “no significant effect”. Also, the “Amount of the 24 h urine protein” value in data set [3] (setting [6]) is listed as “different degrees of reduction”; in data set [3] (3, 10, and 30 mg/kg, 12 d after administration), “certain trend of reduction”. Also, the Urine protein concentration entry in data set [3] (setting [6]) is “different degrees of reduction”. In addition, in data set [3] (3, 10 and 30 mg/kg, 7 d and 12 d after administration, versus model control), the Blood albumin entry is on record as “different degrees of increase”. For the same compound, the “Therapeutic effect on PAN-induced renal injury” value in data set [3] (gavage 3, 10, 30 mg/kg) is “significant therapeutic effect”. Also, the “Degree of renal lesions, pathologic microscopy” value in data set [3] (low, medium and high dose groups) is “reduce the degree of lesions”.

Source of the values: US20250333377A1, “SOLID FORM OF NAPHTHYLAMINE MITOPHAGY INDUCER, AND PREPARATION METHOD THEREFOR, PHARMACEUTICAL COMPOSITION THEREOF AND USE THEREOF” (HANGZHOU PHECDAMED CO., LTD., priority 2023, published 2025).
